One assay concerns HIV-1(IIIB) (WT). Put plainly: microbe, parasite or virus in culture. It is filed as cell-based. The conditions noted are these: Human immunodeficiency virus 1, IIIB, CCRF-CEM. A digest of the protocol:
(§1)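 CEM cells at 250,000 cells/ml were infected with HIV-1 at 100 CCID50 per ml, then mixed with serial dilutions of test compound. After 4 days at 37° C., cultures were scored for syncytium formation.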

In a further assay the test system is HIV-1/B 101Glu. The experiment in a line: Sensitivity of mutant HIV-1 strain in CEM cell cultures. It is filed as cell-based. The note with it: Table 5. In a few lines: as §1
Assay [1] has as its system HIV-1/V(0.1) 101-Ile + 141-Glu. The assay is described as above. It is filed as cell-based. The conditions noted are these: Table 5. In a few lines: as §1
The next assay deals with HIV-1/II(0.1) 100-Ile. The assay is described as above. The conditions noted are these: Table 5. It is filed as cell-based. In a few lines:
as §1

A further assay deals with HIV-1/Pyr (181-Cys). The description is as above. The conditions noted are these: CEM cells, Table 1. It is filed as cell-based. A digest of the protocol:
as §1

The test system of assay [2] is HIV-1/TIBO R82913 (103-Asn). Described as above. It is filed as cell-based. The note with it: CEM cells, Table 1. In a few lines:
as §1

The test system of another assay is HIV-1/I(0.1) 103-Asn. Described as above. It is filed as cell-based. The conditions noted are these: Table 5. A digest of the protocol:
as §1

The test system of another assay is HIV-1/V(0.5) 103-Asn. The assay is described as above. It is filed as cell-based. A digest of the protocol:
as §1

Assay [3] relates to HIV-1/TIBO R82150 (100-Ile). The assay is described as above. It is filed as cell-based. The conditions noted are these: CEM cells, Table 1. In a few lines:
as §1

Another assay relates to HIV-1/Nev (106-Ala). Described as above. It is filed as cell-based. The conditions noted are these: CEM cells, Table 1. In a few lines: as §1
A further assay deals with HIV-1/IV(0.1) 103-Thr. The assay is described as above. It is filed as cell-based. The conditions noted are these: Table 5. A digest of the protocol: as §1
Assay [4] concerns HIV-1/TSAO-m^3 T (138-Lys). Described as above. It is filed as cell-based. The note with it: CEM cells, Table 1. In a few lines:
as §1

Another assay deals with HIV-1/III(0.1) 103-Asn. The description is as above. It is filed as cell-based. The note with it: Table 5. In a few lines: as §1
For a further assay, the target named is HIV-1 RT (WT) (Human immunodeficiency virus type 1 group M subtype B, UniProt P03366). Put plainly: biochemical. The note with it: IC50, anti-HIV-1 RT (WT) activity. A digest of the protocol:
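Recombinant HIV-1 RT incubated 30 min at 37° C with poly(C).oligo(dG) (0.1 mM) and [³H]dGTP (2.95 μM) in Tris pH 7.8 with 5 mM MgCl2, 150 mM KCl, DTT, glutathione, Triton X-100; 5-fold compound dilutions. Acid-insoluble radioactivity counted after TCA/pyrophosphate precipitation.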

Values after ≈ are worked out from the molar mass of the structure shown. Read-outs that look alike come from different tables or passages of the source. Some results are limits rather than exact numbers.

By IC50 is commonly meant the concentration needed to halve the response being measured. Regarding `Cc1cn([C@@H]2O[C@H](CO[Si](C)(C)C(C)(C)C)[C@@]3(OS(=O)(=O)C=C3N)[C@H]2O[Si](C)(C)C(C)(C)C)c(=O)n(C)c1=O` [TSAO-m^3 T], the EC50 with HIV-1(IIIB) (WT) (CEM cells, Table 1, read-out: 50% Effective Concentration) is 0.03 µg/mL (≈ 0.0497 µM); with HIV-1(IIIB) (WT) (HIV-1 (III8), Table 5, read-out: EC50), 0.03 µg/mL (≈ 0.0497 µM); with HIV-1/B 101Glu, over 2.5 µg/mL; in [1], 0.06 µg/mL (≈ 0.0994 µM); in the assay with HIV-1/II(0.1) 100-Ile it was 0.37 µg/mL (≈ 0.613 µM); with HIV-1/I(0.1) 103-Asn it was 0.22 µg/mL (≈ 0.364 µM). Besides, the EC50 with HIV-1/V(0.5) 103-Asn (Table 5) is 0.30 µg/mL (≈ 0.497 µM); in the assay on HIV-1/IV(0.1) 103-Thr, 0.30 µg/mL (≈ 0.497 µM); in the assay with HIV-1/III(0.1) 103-Asn it was 0.20 µg/mL (≈ 0.331 µM). The “50% Effective Concentration” value in the assay on HIV-1/Pyr (181-Cys) is 3.0 µg/mL; in assay [2], 0.15 µg/mL; in assay [3], 0.05 µg/mL; in the assay with HIV-1/Nev (106-Ala) it was over 50 µg/mL; in assay [4], over 50 µg/mL. Further, the “fold more inhibitory to HIV-1/III(0.1) than to HIV-1/V(0.5)” value in the assay with HIV-1/V(0.5) 103-Asn (both RT/103-Asn mutants) was “equally inhibitory to both virus mutants”. The IC50 on HIV-1 RT (WT) is 4.6 µM.
